Data on 18 compounds can be found in patent US12371428B2 (Exelixis, Inc., priority 2019, dated 2025).

By IC50 is commonly meant the midpoint of a concentration-inhibition curve.

Assay [1] has as its target Human MER (residues 528-999) (Homo sapiens (Human), UniProt Q12866). Nature of the assay: Human Mer kinase assay, HTRF KinEase (Example C-2). Type of assay: biochemical. The settings on record: protocol of Example C-2 (other compounds). In a few lines: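 HTRF KinEase TK assay with MER 528-999 (1 ng/well) in enzymatic buffer plus 5 mM MgCl2 and 1 mM DTT, biotinylated peptide substrate and ATP at Km (40 μM), 3% DMSO final, 60 min at room temperature. Stopped with EDTA detection mix (SA-XL665, TK antibody-Eu3+), read at 665/620 nm after 60 min; IC50 from 10-point 4-parameter fit, normalized to DMSO and 1 μM reference.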

The target in assay [2] is Human MET (residues 956-1390) (Homo sapiens (Human), UniProt P08581). Kind of assay: Human Met kinase assay, HTRF KinEase (Example D-2). As to conditions: protocol of Example D-2 (other compounds); read-out: c-Met IC50. The class given is biochemical. The method, boiled down: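 HTRF KinEase assay on MET residues 956-1390 (0.1 ng/well) in buffer with 5 mM MgCl2, 1 mM DTT and 1 mM MnCl2, with biotinylated peptide substrate, ATP at Km, 10 compound concentrations and 3% DMSO final, run 40 min at room temperature. The […] signal was normalized to DMSO and to 1 μM reference compound, and IC50 came from a 4-parameter logistic fit.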
Sequence of Human MET (residues 956-1390) (P08581 956-1390): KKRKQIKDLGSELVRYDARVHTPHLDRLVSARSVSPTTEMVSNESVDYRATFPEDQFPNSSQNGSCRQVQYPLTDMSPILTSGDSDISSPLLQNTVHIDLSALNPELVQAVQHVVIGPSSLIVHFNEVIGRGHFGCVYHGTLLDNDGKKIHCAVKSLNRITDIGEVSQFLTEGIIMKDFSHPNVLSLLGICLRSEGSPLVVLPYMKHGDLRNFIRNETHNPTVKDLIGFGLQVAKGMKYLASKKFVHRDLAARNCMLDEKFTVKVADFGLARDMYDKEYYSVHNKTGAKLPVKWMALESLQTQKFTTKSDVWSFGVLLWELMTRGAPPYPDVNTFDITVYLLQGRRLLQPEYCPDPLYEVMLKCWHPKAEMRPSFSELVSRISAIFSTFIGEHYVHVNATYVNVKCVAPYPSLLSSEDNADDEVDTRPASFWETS
On the technique in general: In TR-FRET formats the signal depends on donor and acceptor labels being close together.

The target of assay [3] is Mer (phospho-Mer, MERTK-transfected 293A cells) (Homo sapiens (Human), UniProt Q12866). Kind of assay: Mer autophosphorylation ELISA in transient transfected 293A cells (Example H). The class given is cell-based. The settings on record: cellular activity; Mer autophosphorylation ELISA in transient transfected 293A cells. The method, boiled down:
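Human MERTK transiently transfected into 293A cells; compounds as 8-point dose curve in serum-free medium (0.3% DMSO final), 1 h. Lysates assayed by phospho-Mer sandwich ELISA against phospho-Mer standard; DMSO = 100%, reference inhibitor = 0% activity; IC50 from 4-parameter logistic fit.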

Assay [4] concerns the target Met (phospho-Met, HGF-stimulated PC-3 prostate cancer cells) (Homo sapiens (Human), UniProt P08581). Nature of the assay: Met autophosphorylation ELISA in PC-3 cells (Example F). The class given is cell-based. As to conditions: cellular activity; Met autophosphorylation ELISA in PC-3 cells; read-out: c-Met IC50. In a few lines:
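Serum-starved (3 h) PC-3 cells were treated 1 h with compounds (8-point curve, 0.3% DMSO), then stimulated with 100 ng/mL human HGF for 10 min. Lysate phospho-Met (panTyr) was measured by sandwich ELISA, normalised to DMSO and reference-inhibitor controls. IC50 came from 4-parameter logistic fit.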
In general terms: In an ELISA, binding on a coated surface is turned into a signal by an enzyme label.

A value given as a limit tells only on which side of the number the result lay.

Sequence of Met (phospho-Met, HGF-stimulated PC-3 prostate cancer cells) (P08581 25-1390): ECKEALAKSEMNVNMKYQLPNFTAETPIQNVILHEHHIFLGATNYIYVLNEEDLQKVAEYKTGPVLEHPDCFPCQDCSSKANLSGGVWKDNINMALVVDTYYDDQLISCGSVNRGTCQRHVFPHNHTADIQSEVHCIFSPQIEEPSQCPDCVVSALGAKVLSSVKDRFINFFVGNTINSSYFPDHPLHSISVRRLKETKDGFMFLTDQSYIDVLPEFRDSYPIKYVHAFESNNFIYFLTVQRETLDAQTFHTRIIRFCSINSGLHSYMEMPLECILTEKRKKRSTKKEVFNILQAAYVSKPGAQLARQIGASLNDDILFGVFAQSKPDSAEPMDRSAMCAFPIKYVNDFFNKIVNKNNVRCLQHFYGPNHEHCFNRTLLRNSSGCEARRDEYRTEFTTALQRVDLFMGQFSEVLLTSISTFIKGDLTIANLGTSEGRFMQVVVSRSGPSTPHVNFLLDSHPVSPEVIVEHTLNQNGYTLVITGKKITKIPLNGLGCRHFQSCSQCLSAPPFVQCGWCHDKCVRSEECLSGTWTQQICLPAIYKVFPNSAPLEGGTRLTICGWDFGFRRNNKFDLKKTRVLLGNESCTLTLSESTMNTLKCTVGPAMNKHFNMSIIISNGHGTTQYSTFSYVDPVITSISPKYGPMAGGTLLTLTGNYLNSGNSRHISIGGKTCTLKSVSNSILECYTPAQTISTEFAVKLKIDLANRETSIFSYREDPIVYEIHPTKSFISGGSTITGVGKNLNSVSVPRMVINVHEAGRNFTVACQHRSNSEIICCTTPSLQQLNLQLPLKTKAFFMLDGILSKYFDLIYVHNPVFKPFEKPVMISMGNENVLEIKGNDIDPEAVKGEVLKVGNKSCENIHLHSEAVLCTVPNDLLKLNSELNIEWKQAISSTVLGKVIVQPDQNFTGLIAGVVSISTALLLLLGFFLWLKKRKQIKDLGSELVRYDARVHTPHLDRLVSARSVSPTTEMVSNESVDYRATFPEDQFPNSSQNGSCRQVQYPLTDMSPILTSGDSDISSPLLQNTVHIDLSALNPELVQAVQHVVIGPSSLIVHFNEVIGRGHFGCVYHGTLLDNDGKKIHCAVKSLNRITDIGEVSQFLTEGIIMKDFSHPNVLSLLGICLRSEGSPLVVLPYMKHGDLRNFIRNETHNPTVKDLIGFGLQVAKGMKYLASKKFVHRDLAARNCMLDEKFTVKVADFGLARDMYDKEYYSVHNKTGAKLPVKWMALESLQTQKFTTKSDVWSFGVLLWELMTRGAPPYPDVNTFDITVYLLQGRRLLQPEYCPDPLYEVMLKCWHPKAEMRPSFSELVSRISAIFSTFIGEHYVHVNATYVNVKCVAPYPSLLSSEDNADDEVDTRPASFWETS
Sequence of Mer (phospho-Mer, MERTK-transfected 293A cells) (Q12866 21-999): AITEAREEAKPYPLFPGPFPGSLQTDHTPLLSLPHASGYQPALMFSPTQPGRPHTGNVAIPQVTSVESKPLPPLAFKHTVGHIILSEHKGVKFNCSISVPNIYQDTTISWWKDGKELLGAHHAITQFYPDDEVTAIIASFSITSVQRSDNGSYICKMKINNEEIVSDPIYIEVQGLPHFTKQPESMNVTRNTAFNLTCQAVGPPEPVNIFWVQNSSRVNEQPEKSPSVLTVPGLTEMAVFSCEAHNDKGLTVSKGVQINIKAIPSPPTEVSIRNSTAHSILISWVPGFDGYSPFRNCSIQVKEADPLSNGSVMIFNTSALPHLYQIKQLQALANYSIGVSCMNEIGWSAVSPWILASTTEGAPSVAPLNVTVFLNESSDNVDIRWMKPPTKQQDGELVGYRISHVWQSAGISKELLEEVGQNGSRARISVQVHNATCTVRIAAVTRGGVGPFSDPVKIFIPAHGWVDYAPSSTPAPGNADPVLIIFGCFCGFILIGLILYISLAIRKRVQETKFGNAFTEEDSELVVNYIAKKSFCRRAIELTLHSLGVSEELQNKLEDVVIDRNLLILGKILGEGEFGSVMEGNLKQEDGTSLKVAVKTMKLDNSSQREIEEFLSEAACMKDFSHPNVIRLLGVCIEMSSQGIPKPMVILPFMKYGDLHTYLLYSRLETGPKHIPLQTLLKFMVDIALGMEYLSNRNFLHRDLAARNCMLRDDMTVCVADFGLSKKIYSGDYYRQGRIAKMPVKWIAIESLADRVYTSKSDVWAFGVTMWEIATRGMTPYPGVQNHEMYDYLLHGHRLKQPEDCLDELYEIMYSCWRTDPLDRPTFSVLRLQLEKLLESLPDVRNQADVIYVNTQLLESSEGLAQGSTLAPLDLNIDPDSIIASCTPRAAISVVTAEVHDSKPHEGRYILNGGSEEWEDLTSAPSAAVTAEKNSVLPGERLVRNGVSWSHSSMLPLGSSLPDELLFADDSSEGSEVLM
Sequence of Human MER (residues 528-999) (Q12866 528-999): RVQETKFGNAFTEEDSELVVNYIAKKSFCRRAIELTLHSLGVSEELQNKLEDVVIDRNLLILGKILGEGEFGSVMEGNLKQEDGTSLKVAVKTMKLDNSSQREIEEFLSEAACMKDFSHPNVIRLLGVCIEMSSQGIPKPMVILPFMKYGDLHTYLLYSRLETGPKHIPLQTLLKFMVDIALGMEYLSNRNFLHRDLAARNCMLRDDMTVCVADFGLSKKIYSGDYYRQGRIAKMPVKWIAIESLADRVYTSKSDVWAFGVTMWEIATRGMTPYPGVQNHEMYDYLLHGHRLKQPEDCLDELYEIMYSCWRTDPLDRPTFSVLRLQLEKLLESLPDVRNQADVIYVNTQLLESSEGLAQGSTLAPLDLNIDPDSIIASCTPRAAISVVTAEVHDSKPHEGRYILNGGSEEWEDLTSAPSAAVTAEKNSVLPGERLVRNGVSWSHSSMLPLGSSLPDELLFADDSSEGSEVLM

With `Cc1ncc(C(=O)Nc2ccc(Oc3ccnc4cc(C(F)(F)F)cnc34)c(F)c2)c(O)c1-c1ccc(F)cc1` [Compound 151, 5-(4-Fluorophenyl)-N-[3-fluoro-4-[[7-(trifluoromethyl)-1,5-naphthyridin-4-yl]oxy]phenyl]-4-hydroxy-6-methylpyridine-3-carboxamide], the IC50 in assay [1], in assay [2], in assay [3] and in assay [4] was less than 100 nM throughout.
For `Cc1nc2c(Oc3ccc(NC(=O)c4cn(C(C)C)c(C)c(-c5ccc(F)cc5)c4=O)cc3F)ccnc2cc1Br` [Compound 153, N-[4-[(7-Bromo-6-methyl-1,5-naphthyridin-4-yl)oxy]-3-fluorophenyl]-5-(4-fluorophenyl)-6-methyl-4-oxo-1-propan-2-ylpyridine-3-carboxamide], the IC50 in assay [1], in assay [2], in assay [3] and in assay [4] was less than 100 nM each time.
Regarding `COc1cc2nccc(Oc3ccc(NC(=O)c4cnc(C(C)(C)C)c(-c5ccc(F)cc5)c4O)cc3F)c2nc1OC` [Compound 155, 6-tert-Butyl-N-[4-[(6,7-dimethoxy-1,5-naphthyridin-4-yl)oxy]-3-fluorophenyl]-5-(4-fluorophenyl)-4-hydroxypyridine-3-carboxamide], the IC50 is less than 100 nM in assay [1], less than 100 nM in assay [2], less than 100 nM in assay [3] and 100 to 300 nM in assay [4].
With `COc1cnc2c(Oc3ccc(NC(=O)c4cn(C)c(C)c(-c5ccc(F)cc5)c4=O)cc3F)ccnc2c1` [Compound 156, N-[3-Fluoro-4-[(7-methoxy-1,5-naphthyridin-4-yl)oxy]phenyl]-5-(4-fluorophenyl)-1,6-dimethyl-4-oxopyridine-3-carboxamide], the IC50 in assay [1], in assay [2], in assay [3] and in assay [4] was less than 100 nM each time.
`COc1cc2nccc(Oc3ccc(NC(=O)c4cn(CCN5CCOCC5)cc(-c5ccc(F)cc5)c4=O)cc3F)c2nc1OC` [Compound 157, N-[4-[(6,7-Dimethoxy-1,5-naphthyridin-4-yl)oxy]-3-fluorophenyl]-5-(4-fluorophenyl)-1-(2-morpholin-4-ylethyl)-4-oxopyridine-3-carboxamide]: the IC50 in assay [1], in assay [2], in assay [3] and in assay [4] was less than 100 nM throughout.
For `Cc1c(-c2ccc(F)cc2)c(=O)c(C(=O)Nc2ccc(Oc3ccnc4cc(F)cnc34)c(F)c2)cn1C(C)C` [Compound 162, N-[3-Fluoro-4-[(7-fluoro-1,5-naphthyridin-4-yl)oxy]phenyl]-5-(4-fluorophenyl)-6-methyl-4-oxo-1-propan-2-ylpyridine-3-carboxamide], the IC50 was 100 to 300 nM in assay [1], less than 100 nM in assay [2], less than 100 nM in assay [3] and 100 to 300 nM in assay [4].
For the compound `CCn1cc(C(=O)Nc2ccc(Oc3ccnc4cc(OC)cnc34)cc2)c(=O)c(-c2ccc(F)cc2)c1C` [Compound 163, 1-Ethyl-5-(4-fluorophenyl)-N-[4-[(7-methoxy-1,5-naphthyridin-4-yl)oxy]phenyl]-6-methyl-4-oxopyridine-3-carboxamide], the IC50 in assay [1], in assay [2], in assay [3] and in assay [4] was less than 100 nM throughout.
Turning to `CCn1cc(C(=O)Nc2ccc(Oc3ccnc4cc(OC)cnc34)c(F)c2)c(=O)c(-c2ccc(F)cc2)c1C` [Compound 164, 1-Ethyl-N-[3-fluoro-4-[(7-methoxy-1,5-naphthyridin-4-yl)oxy]phenyl]-5-(4-fluorophenyl)-6-methyl-4-oxopyridine-3-carboxamide], the IC50 in assay [1], in assay [2], in assay [3] and in assay [4] was less than 100 nM throughout.
Take `COc1cnc2c(Oc3ccc(NC(=O)c4cn(C(C)(C)C)c(C)c(-c5ccc(F)cc5)c4=O)cc3F)ccnc2c1` [Compound 166, 1-tert-Butyl-N-[3-fluoro-4-[(7-methoxy-1,5-naphthyridin-4-yl)oxy]phenyl]-5-(4-fluorophenyl)-6-methyl-4-oxopyridine-3-carboxamide]: the IC50 in assay [1], in assay [2], in assay [3] and in assay [4] was less than 100 nM throughout.
`CCn1cc(C(=O)Nc2ccc(Oc3ccnc4cc(OC)c(OC)nc34)cc2)c(=O)c(-c2ccc(F)cc2)c1` [Compound 167, N-[4-[(6,7-Dimethoxy-1,5-naphthyridin-4-yl)oxy]phenyl]-1-ethyl-5-(4-fluorophenyl)-4-oxopyridine-3-carboxamide]: the IC50 in assay [1], in assay [2], in assay [3] and in assay [4] was less than 100 nM in each case.
Turning to `CCn1cc(C(=O)Nc2ccc(Oc3ccnc4cc(OC)c(OC)nc34)cc2)c(=O)c(-c2ccc(F)cc2)c1C` [Compound 168, N-[4-[(6,7-Dimethoxy-1,5-naphthyridin-4-yl)oxy]phenyl]-1-ethyl-5-(4-fluorophenyl)-6-methyl-4-oxopyridine-3-carboxamide], the IC50 in assay [1], in assay [2], in assay [3] and in assay [4] was less than 100 nM in each case.
Consider `CCn1cc(C(=O)Nc2ccc(Oc3ccnc4cc(OC)cnc34)cc2)c(=O)c(-c2ccc(F)cc2)c1` [Compound 169, 1-Ethyl-5-(4-fluorophenyl)-N-[4-[(7-methoxy-1,5-naphthyridin-4-yl)oxy]phenyl]-4-oxopyridine-3-carboxamide], for which the IC50 in assay [1], in assay [2], in assay [3] and in assay [4] was less than 100 nM in each case.
On to `CCn1cc(C(=O)Nc2ccc(Oc3ccnc4cc(OC)cnc34)c(F)c2)c(=O)c(-c2ccc(F)cc2)c1` [Compound 170, 1-Ethyl-N-[3-fluoro-4-[(7-methoxy-1,5-naphthyridin-4-yl)oxy]phenyl]-5-(4-fluorophenyl)-4-oxopyridine-3-carboxamide], for which the IC50 in assay [1], in assay [2], in assay [3] and in assay [4] was less than 100 nM each time.
`COc1cc2nccc(Oc3ccc(NC(=O)c4cnc(C)c(-c5ccc(F)cc5)c4O)cc3)c2cc1OC` [Compound 171, N-[4-(6,7-Dimethoxyquinolin-4-yl)oxyphenyl]-5-(4-fluorophenyl)-4-hydroxy-6-methylpyridine-3-carboxamide]: the IC50 in assay [1], in assay [2], in assay [3] and in assay [4] was less than 100 nM each time.
For `COc1ccc2nccc(Oc3ccc(NC(=O)c4cnc(C)c(-c5ccc(F)cc5)c4O)cc3F)c2n1` [Compound 172, N-[3-Fluoro-4-[(6-methoxy-1,5-naphthyridin-4-yl)oxy]phenyl]-5-(4-fluorophenyl)-4-hydroxy-6-methylpyridine-3-carboxamide], the half-inhibitory concentration (IC50) in assay [1], in assay [2], in assay [3] and in assay [4] was less than 100 nM throughout.
On to `COc1cc2nccc(Oc3ccc(NC(=O)c4c(C)nc(C)c(-c5ccc(F)cc5)c4O)cc3)c2nc1OC` [Compound 173, N-[4-[(6,7-Dimethoxy-1,5-naphthyridin-4-yl)oxy]phenyl]-5-(4-fluorophenyl)-4-hydroxy-2,6-dimethylpyridine-3-carboxamide], for which the IC50 in assay [1], in assay [2], in assay [3] and in assay [4] was less than 100 nM throughout.
Regarding `COc1cc2nccc(Oc3ccc(NC(=O)c4cnc(C)c(-c5ccc(F)cc5C)c4O)cc3)c2nc1OC` [Compound 174, N-[4-[(6,7-Dimethoxy-1,5-naphthyridin-4-yl)oxy]phenyl]-5-(4-fluoro-2-methylphenyl)-4-hydroxy-6-methylpyridine-3-carboxamide], the concentration for half-maximal inhibition (IC50) in assay [1], in assay [2], in assay [3] and in assay [4] was less than 100 nM throughout.
For `COc1cnc2c(Oc3ccc(NC(=O)c4cnc(C)c(-c5ccc(F)cc5C)c4O)cc3F)ccnc2c1` [Compound 175, N-[3-Fluoro-4-[(7-methoxy-1,5-naphthyridin-4-yl)oxy]phenyl]-5-(4-fluoro-2-methylphenyl)-4-hydroxy-6-methylpyridine-3-carboxamide], the IC50 in assay [1], in assay [2], in assay [3] and in assay [4] was less than 100 nM throughout.
